Where two headings read alike, the source gives them in different places.
Target: T1, HDAC6 (Homo sapiens, UniProt Q9UBN7)
T1 sequence (Q9UBN7 1-1215): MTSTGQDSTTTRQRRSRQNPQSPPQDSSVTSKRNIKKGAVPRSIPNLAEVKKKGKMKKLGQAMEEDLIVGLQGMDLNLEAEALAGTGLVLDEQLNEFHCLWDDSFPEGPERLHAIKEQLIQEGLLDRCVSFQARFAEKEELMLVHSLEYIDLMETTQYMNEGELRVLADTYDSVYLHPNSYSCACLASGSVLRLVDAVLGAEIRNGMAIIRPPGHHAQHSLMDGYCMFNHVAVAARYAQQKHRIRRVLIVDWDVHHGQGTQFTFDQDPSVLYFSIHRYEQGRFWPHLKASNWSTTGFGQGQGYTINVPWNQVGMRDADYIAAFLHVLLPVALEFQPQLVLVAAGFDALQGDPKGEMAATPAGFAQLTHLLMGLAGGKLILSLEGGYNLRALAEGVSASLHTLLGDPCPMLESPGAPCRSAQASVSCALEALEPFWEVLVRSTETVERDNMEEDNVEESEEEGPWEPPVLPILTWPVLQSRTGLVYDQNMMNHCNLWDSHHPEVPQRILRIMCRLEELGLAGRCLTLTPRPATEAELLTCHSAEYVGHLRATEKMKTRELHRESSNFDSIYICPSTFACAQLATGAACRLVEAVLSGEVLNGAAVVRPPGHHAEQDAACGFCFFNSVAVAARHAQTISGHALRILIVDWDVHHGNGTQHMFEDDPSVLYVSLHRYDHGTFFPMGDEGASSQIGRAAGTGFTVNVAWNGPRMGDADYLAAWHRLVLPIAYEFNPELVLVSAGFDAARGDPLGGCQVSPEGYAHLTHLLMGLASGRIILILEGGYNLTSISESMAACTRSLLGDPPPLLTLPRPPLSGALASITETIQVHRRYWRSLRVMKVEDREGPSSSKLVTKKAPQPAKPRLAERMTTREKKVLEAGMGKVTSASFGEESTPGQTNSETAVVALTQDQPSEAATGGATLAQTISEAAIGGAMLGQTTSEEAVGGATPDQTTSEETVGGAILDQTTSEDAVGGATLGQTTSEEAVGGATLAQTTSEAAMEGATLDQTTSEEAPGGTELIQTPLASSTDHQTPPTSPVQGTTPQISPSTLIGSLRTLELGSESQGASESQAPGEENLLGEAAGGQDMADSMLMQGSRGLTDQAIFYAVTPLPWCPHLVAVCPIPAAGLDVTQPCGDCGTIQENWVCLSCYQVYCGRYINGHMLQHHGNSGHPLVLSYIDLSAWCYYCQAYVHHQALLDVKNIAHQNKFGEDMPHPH
Test: HDAC6 inhibition, modified Fluor-de-Lys assay
Type: biochemical
Settings: 3 h pre-incubation, read-out: HDAC-6 IC50
Description: Human HDAC Enzyme Inhibitor FLUOR-DE-LYS Assay Materials
The histone deacetylase activities of HDAC1, HDAC2, HDAC3, HDAC6, and HDAC8 were measured in modified Fluor-de-Lys assays in 384-well format. In this assay, HDAC enzymes are initially incubated with an ε-acetyl (or -trifluoroacetyl)-L-lysine-containing substrate with a C-terminal amide having aminomethylcoumarin as the amine component. HDACs cleave the ε-acetyl group, rendering the resulting product susceptible to AMC cleavage by trypsin. The released AMC is then detected by its fluorescence.
The HDAC 1, 2 assays employed buffer A, which contained 20 mM HEPES, pH 8.0, 1 mM MgCl2, 137 mM NaCl, 2.7 mM KCl, 0.05% BSA. The HDAC3/SMRT assay employed buffer B, consisting of 20 mM HEPES, pH 8.0, 1 mM MgCl2, 50 mM NaCl, 2.7 mM KCl, 0.05% BSA, 0.005% Tween 20, and 10 μM IP4. The HDAC6 assay employed buffer C, consisting of 20 mM HEPES, pH 8.0, 1 mM MgCl2, 137 mM NaCl, 2.7 mM KCl, 0.5 mM TCEP (Calbiochem) and 0.05% BSA. The HDAC8 assay employed buffer D, consisting of 20 mM HEPES, pH 8.0, 1 mM MgCl2, 100 mM NaCl, 20 mM KCl, 0.1% n-octyl-β-D-glucoside (Anatrace, Maumee, Ohio) and 0.05% BSA. All steps were performed at room temperature (23° C.). The assay was performed by pre-incubating serial dilutions of test compounds with the target HDAC prior to initiation with substrate. Each compound was titrated in a 10-point dose response, using a 1:3 fold dilution scheme, with 0.15 ul of solution added by ECHO555 to the plate, followed by the addition of 20 μl of the appropriate HDAC isoform diluted in appropriate assay buffer. […] Final conditions used for each assay were: 1. HDAC 1, 0.3 nM total enzyme, 20 μM substrate BML-KI104; 2. HDAC 2, 1.5 nM total enzyme, 40 μM substrate BML-KI104; 3. HDAC 3/SMRT, 0.3 nM total enzyme, 20 μM substrate BML-KI104; 4. HDAC 6, 1.3 nM total enzyme, 2.5 μM substrate BML-KI104; 5. HDAC 8, 1.3 nM total enzyme, 200 μM substrate BML-KI178; the final high dose of test compound was 30 μM. For potent compounds, 900 nM was used as the final high dose. The reactions were stopped and developed by addition of 30 ul of HDAC developer solution containing a saturating level of HDAC inhibitor as follows: 1.

[1] = 1.3 nM enzyme, 2.5 μM substrate BML-KI104
[2] = […] enzyme, […] substrate BML-KI104

| Compound | IC50 [1] | IC50 [2] |
| --- | --- | --- |
| CCC(=O)CCCCC[C@H](NC(=O)[C@H]1CC12CCN(CC)CC2)c1[nH]c2nc1C(=O)NCCC/C=C\c1cccc-2c1 [Compound 14, (1S)-6-ethyl-N-{(1S)-7-oxo-1-[(11Z)-6-oxo-3,7,18-triazatricyclo[11.3.1.1~2,5~]octadeca-1(17),2(18),4,11,13,15-hexaen-4-yl]nonyl}-6-azaspiro[2.5]octane-1-carboxamide] | > 90 nM | – |
| CCC(=O)CCCCC[C@H](NC(=O)[C@H]1CC12CCN(CC)CC2)c1[nH]c2nc1C(=O)NCCC/C=C/c1cccc-2c1 [Compound 15, (1S)-6-ethyl-N-{(1S)-7-oxo-1-[(11E)-6-oxo-3,7,18-triazatricyclo[11.3.1.1~2,5~]octadeca-1(17),2(18),4,11,13,15-hexaen-4-yl]nonyl}-6-azaspiro[2.5]octane-1-carboxamide] | > 900 nM | – |
| CCC(=O)CCCCCC1NC(=O)C2CC2N2CCC(CCCCCn3c(=O)ccc4cc(ccc43)-c3cnc1o3)CC2 [Compound 7, (11S,4S)-4-(6-oxooctyl)-61,62-dihydro-3-aza-5(2,5)-oxazola-6(6,1)-quinolina-12(4,1)-piperidina-1(1,2)-cyclopropanadodecaphane-62,2-dione] | – | 858 nM |
| CCC(=O)CCCCC[C@@H]1NC(=O)[C@H]2CC23CCN(CCCCCCCCn2ccc4cc(c(OC)cc4c2=O)-c2cnc1[nH]2)CC3 [Compound 5, (1^1S,4S)-6^7-methoxy-4-(6-oxooctyl)-6^1,6^2-dihydro-5^1H-3-aza-6(6,2)-isoquinolina-15(4,1)-piperidina-5(2,5)-imidazola-1(1,2)-cyclopropanapentadecaphane-6^1,2-dione] | – | 218 nM |
| (11S,4S)-4-(6-oxooctyl)-61,62-dihydro-3-aza-5(2,5)-oxazola-6(6,1)-quinolina-12(4,1)-piperidina-1(1,2)-cyclopropanadodecaphane-62,2-dione [Compound 8] | – | > 900 nM |

Reference: US11976069B2, “Inhibitors of histone deacetylase useful for the treatment or prevention of HIV infection” (Merck Sharp & Dohme LLC, priority 2019, dated 2024)
